The text below walks through data of patent US20230382863A1, “MEK INHIBITORS AND USES THEREOF” (Ikena Oncology, Inc., priority 2022, published 2023).

In general, IC50 refers to the concentration needed to halve the response being measured. A word on the AUC(0-inf): it is the area under the concentration-time curve extrapolated to infinity. Lower therefore signals less exposure. The term AUC(0-t) denotes the area under the concentration-time curve up to a stated or last time point. As usually defined, the clearance is the rate of elimination divided by the concentration. Low values mean a low capacity for elimination, high ones a high capacity for elimination. The half-life is the time needed for the level to fall by half in the phase considered. Read a high half-life as slow loss. A word on the Cmax: it is the maximum level reached in the sampled fluid or tissue. The term Tmax denotes the time from dosing to the highest level.

Series [1] relates to cancer cell lines. The series can be described thus: In vitro MEK inhibitor drug combinations (Cell Titer Glo, Loewe synergy). Particulars: combination with I-2; AsPC-1, HPAF, MiaPACA2, NCI-H1373, NCI-H2122, PANC03276; 5 days. In kind it is cell-based. As for the experimental part: Cell viability was determined by Cell Titer Glo assay. […] A normalized Loewe sum of synergy score of >10 was considered synergistic, <10, but >−10 additive, and <−10 antagonistic.

For series [2], the target named is uMEK/BRAF (Homo sapiens (Human), UniProt Q02750). Nature of the series: MEK-RAF Binding Assay (uMEK/BRAF HTRF). A general note: In TR-FRET formats the signal depends on donor and acceptor labels being close together.
Series [3] relates to pERK HCT-116 (G13D). The series can be described thus: pERK HCT-116 (G13D) ICW (4 hour). It counts as cell-based. Particulars: Homo sapiens, read-out: pERK HCT-116 (G13D) ICW (4 hour): Average IC50 (nM).
The subject of series [4] is Phosphorylation of MEK1/2 in AsPC1 cells. The series can be described thus: 4 hour pMEK1/2 MSD Assay. It counts as cell-based. Particulars: Homo sapiens; AsPC1, 4 hours; read-out: pMEK IC50. As for the experimental part: AsPC1 cells were seeded at 10,000 cells/well overnight in 96-well plates, then treated with a 12-point dose response of compounds (Starting dose of 1000 nM and 3-fold dilution) for 4 hours. AsPC1 cells are a K-Ras mutant (G12D) pancreatic cancer cell line. Phosphorylation of MEK1/2 on residues Ser217 and Ser221 were detected using a MesoScale Discovery (MSD) assay (MSD Cat #K15129D-2). MEK1/2 phosphorylation levels were normalized to total MEK1/2 protein detected in each well on the same MSD plate. IC50 values were determined by fitting a variable slope, four parameters curve to the compound concentration to normalized Phospho-MEK1/2 relationship.

Series [5] can be described thus: Cassette pharmacokinetics studies in mice. In kind it is in vivo. Conditions: male, Balb/c, plasma, Mouse. In outline:
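Male Balb/c mice (3 per route) received cassette doses in 5% DMSO/95% PEG400 at 2 mg/kg IV (1 mg/kg where IV*) or 5 mg/kg PO. Plasma sampled to 24 h, acetonitrile-precipitated with internal standard, quantified by HPLC/MS/MS against 0.5-1,000 ng/mL standards.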

A short description of series [6]: Pharmacokinetics in rat. Particulars: plasma, IV, 0.2 mg/kg. It counts as in vivo.
In series [7] the target is MEK1-CRAF complex (Homo sapiens (Human), UniProt Q02750). The series can be described thus: Stabilization of MEK1-CRAF complex assay (AlphaLISA). In kind it is binding. The protocol: MEK1 was diluted to 4 nM, and nickel chelate donor beads and glutathione acceptor beads were diluted to 80 μg/mL. CRAF was diluted to a top concentration of 160 nM, which was subsequently diluted to 80, 40, 20, 10, 5, 2.5, 1.25, and 0.625 nM through 1:2 serial dilution.
Exemplary MEK inhibitor compounds (0, 0.01, 0.1, or 1 μM) were added to a 384-AlphaPlate (PerkinElmer, 6008350) by a digital liquid dispenser (Tecan D300e) based on a total volume of 20 μL reaction mixture.
5 μL 4×MEK1 stock solution was added to wells A1-P20 by multichannel pipettes. The plate was sealed with clear olefin sealing tape (Thermo Scientific, 232701), centrifuged at 1000 rpm for 1 minute, and incubated at room temperature for 30 minutes.
5 μL 4×CRAF stock solution at different concentrations or 5 μL or 10 μL AlphaLISA buffer was added by multichannel pipettes. The plate was sealed, centrifuged at 1000 rpm for 1 minute, and incubated at room temperature for 60 minutes.
5 μL 4×glutathione acceptor beads were first added to all wells by multichannel pipettes. The ambient light was subsequently adjusted to <100 lux (light meter) before adding 5 μL 4×nickel chelate donor beads to the same wells. From this step on, the plate was covered with a black plate cover, centrifuged at 1000 rpm for 1 minute, and incubated at room temperature for 60 minutes.
Data were collected on a PHERAStar FSX (BMG LABTECH) using the AlphaLISA module (excitation: 680 nm, emission: 615 nm), with a gain of 3600. The excitation time was 0.30 seconds, and data collection started after a 0.04-second delay for a total integration time of 0.60 seconds.
The individual AlphaLISA counts of wells with exemplary MEK inhibitor compound were divided by the average AlphaLISA counts of wells without compound to obtain AlphaLISA signal/background ratio (S/B). The dissociation constant (KD) of MEK1-CRAF was calculated using nonlinear regression curve fit in GraphPad PRISM® 9.0 software.

Sequence of MEK1-CRAF complex (Q02750 whole entry, looked up): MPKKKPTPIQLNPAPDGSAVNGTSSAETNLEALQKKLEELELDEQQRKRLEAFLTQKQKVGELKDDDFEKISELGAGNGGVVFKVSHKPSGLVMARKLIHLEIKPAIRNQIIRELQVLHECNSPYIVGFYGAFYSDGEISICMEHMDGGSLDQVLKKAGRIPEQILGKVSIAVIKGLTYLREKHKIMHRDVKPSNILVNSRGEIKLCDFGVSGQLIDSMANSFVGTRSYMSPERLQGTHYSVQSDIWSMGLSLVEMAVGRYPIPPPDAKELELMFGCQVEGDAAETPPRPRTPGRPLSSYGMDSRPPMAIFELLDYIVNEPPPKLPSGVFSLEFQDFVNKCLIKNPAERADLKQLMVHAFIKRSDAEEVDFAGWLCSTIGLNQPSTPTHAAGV
Sequence of MEK1-CRAF complex (P04049 whole entry partner, looked up): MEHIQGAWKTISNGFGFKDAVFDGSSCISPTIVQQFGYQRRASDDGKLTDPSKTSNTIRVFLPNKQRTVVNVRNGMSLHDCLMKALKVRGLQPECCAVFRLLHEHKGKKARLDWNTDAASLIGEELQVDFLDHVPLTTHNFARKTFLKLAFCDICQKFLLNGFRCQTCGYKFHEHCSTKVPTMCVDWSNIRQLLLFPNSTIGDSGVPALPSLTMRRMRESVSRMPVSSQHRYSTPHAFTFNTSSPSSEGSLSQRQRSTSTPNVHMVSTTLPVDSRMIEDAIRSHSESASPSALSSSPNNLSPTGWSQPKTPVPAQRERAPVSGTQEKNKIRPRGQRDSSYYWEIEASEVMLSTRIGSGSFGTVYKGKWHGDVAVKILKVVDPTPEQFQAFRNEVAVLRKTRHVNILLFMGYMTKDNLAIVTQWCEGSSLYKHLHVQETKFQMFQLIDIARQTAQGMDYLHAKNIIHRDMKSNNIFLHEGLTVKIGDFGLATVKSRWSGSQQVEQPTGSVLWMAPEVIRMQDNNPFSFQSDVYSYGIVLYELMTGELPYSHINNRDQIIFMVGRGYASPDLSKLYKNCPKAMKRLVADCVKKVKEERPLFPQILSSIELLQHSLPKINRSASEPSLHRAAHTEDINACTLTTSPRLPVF
Sequence of uMEK/BRAF (Q02750 whole entry): as the sequence (Q02750 whole entry, looked up) above

Turning to `CO[C@H]1C[C@@H]2CC[C@@H](C)[C@@](O)(O2)C(=O)C(=O)N2CCCC[C@H]2C(=O)O[C@H]([C@H](C)C[C@@H]2CC[C@@H](OCCO)[C@H](OC)C2)CC(=O)[C@H](C)/C=C(\C)[C@@H](O)[C@@H](OC)C(=O)[C@H](C)C[C@H](C)/C=C/C=C/C=C/1C` [Everolimus], in series [1], the “Loewe Synergy Score > 10” value is reported as 5/6 cell lines.

As for `CNS(=O)(=O)Nc1cccc(Oc2c(C(=O)NC3CC3)c(Nc3ccc(I)cc3F)n(C)c(=O)c2C)c1OC` [Compound I-1], the IC50 in series [2], in series [3] and in series [4] was under 100 nM throughout. In addition, the AUC(0-inf) turned out to be 455 ng·h/mL in series [5] (IV, 2 mg/kg); 635 ng·h/mL in series [5] (PO, 5 mg/kg); 107 ng·h/mL in series [6]. Further, the AUC(0-t) in series [5] (IV, 2 mg/kg) was 452 ng·h/mL; in series [5] (PO, 5 mg/kg), 614 ng·h/mL; in series [6], 100 ng·h/mL. In addition, the clearance is 74.9 mL/min/kg in series [5] (IV, 2 mg/kg) and 31.9 mL/min/kg in series [6]. Also, the half-life in series [5] (IV, 2 mg/kg) was 100 min; in series [5] (PO, 5 mg/kg) it was 696 min; in series [6], 144 min. Besides, the Vd in series [5] (IV, 2 mg/kg, read-out: Vdss) stood at 3.2 L/kg; in series [6] (read-out: Vdss), 4.2 L/kg. Moreover, the Cmax in series [5] (PO, 5 mg/kg) was determined as 432 ng/mL. In addition, in series [5] (PO, 5 mg/kg), the Tmax is 24 min. Further, the “KD Ratio (mean), compound to DMSO” value in series [7] (compound 0.01 μM) is listed as 0.80; in series [7] (compound 0.1 μM), 0.55; in series [7] (compound 1 μM) it was 0.42.
